Laboratory results published in paper PMC8025677 (Cell, 2020).
Read-outs that look alike come from different tables or passages of the source.

How the values were obtained:
[1] = target: iAChSnFR (early version; iAChSnFR0.6 in Figure S2A); conditions: n = 3
hSERT = hSERT (Homo sapiens, UniProt P31645); assay: oscillating stimulus transporter assay; assay type: cell-based
iSeroSnFR = assay type: binding, Thermoanaerobacter sp. X513; conditions: for Kd: read-out: apparent Kd, pH 7.4
[2] = tested on: electrically evoked 5-HT release in dorsal striatum slices; design: species or system mouse

Chain of hSERT (P31645 whole entry): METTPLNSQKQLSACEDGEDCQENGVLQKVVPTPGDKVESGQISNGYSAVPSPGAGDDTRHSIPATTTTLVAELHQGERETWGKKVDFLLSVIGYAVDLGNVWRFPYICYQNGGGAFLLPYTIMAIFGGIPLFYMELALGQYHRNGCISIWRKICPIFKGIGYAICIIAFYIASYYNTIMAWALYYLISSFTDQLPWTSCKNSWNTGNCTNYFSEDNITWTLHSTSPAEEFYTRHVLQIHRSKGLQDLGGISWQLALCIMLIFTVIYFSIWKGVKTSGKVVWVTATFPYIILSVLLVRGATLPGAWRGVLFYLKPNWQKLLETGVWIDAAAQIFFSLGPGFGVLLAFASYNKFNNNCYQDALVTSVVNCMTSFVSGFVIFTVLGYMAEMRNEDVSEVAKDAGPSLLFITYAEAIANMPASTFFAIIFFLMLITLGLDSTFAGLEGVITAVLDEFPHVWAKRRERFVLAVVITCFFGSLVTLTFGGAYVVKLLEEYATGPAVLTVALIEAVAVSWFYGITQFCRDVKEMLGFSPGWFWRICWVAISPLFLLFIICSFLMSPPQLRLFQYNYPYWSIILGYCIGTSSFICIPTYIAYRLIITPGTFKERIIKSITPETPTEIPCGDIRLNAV

NCCc1c[nH]c2ccc(O)cc12 [5-HT, serotonin (5-hydroxytryptamine)]
Kd [1]: > 1 mM

CNC(C)Cc1ccc2c(c1)OCO2 (stereo not shown) [MDMA, 3,4-methyl enedioxy methamphetamine]
enhancement in 5-HT efflux (hSERT): 2 fold

CCCCCCCCCCCCCC(=O)O[C@@H]1[C@@H](C)[C@@]2(O)[C@@H](C=C(CO)C[C@]3(O)C(=O)C(C)=C[C@@H]23)[C@@H]2C(C)(C)[C@]12OC(C)=O [PMA, phorbol 12-myristate 13-acetate]
effect on 5-HT transport rate (hSERT; 400 nM): slow decrement in transport rate over ~40 minutes

COC(=O)[C@H]1[C@@H](OC(=O)c2ccccc2)C[C@@H]2CC[C@H]1N2C [cocaine]
effect on 5-HT transport (hSERT): reduced

NCCc1ccc(O)c(O)c1 [dopamine]
Kd (iSeroSnFR): 5.6 mM

NC1=N[C@H](O)[C@H]2[C@H]3O[C@]4(O)O[C@@H]([C@@H](O)[C@@]2(N1)[C@@H]4O)[C@]3(O)CO [tetrodotoxin]
effect on electrically evoked fluorescence transients [2]: completely abolished

NCCc1c[nH]c2ccccc12 [tryptamine]
times weaker affinity than 5-HT (iSeroSnFR; purified iSeroSnFR): 8 times | Kd (iSeroSnFR; purified iSeroSnFR 100 nM): 2.4 mM

N#Cc1ccc2[nH]cc(CCCCN3CCN(c4ccc5oc(C(N)=O)cc5c4)CC3)c2c1 [vilazodone]
effect on 5-HT transport (hSERT; concentration not given): caused transport function to rapidly disappear | recovery of transport after washout (hSERT; washouts of >20 minutes): did not return to baseline
